Source: publication PMC8592419 (PLoS ONE, 2021)
Values after ≈ are worked out from the molar mass of the structure shown. Where a SMILES comes first, the peptide text is derived from it.

Assays:
[1] = system: Mab ATCC19977 strain; type: cell-based, Mycobacterium abscessus
Protocol: (§1) Briefly, serial dilutions of the AMPs were prepared with potassium phosphate buffer (PPB) from the concentration range of 3.125 to 400 μg/ml and then 50 μl of each dilution were added to each 96-well plate. Colonies of the isolate were suspended and then further diluted in Mueller-Hinton broth to obtain a final concentration of 1×10^3 CFU/ml (optimized according to the available AMP stock concentration). Fifty microliters of this inoculum were added to each well of the plates. The plates were incubated for 3 days at 37°C. Plain media and bacterial suspensions without AMPs were used as negative and positive controls. The MIC values were read and recorded. All assays were performed in duplicate and two independent experiments.

[2] = system: M. abscessus clinical isolate MAB02; type: cell-based, M. abscessus subsp. abscessus; conditions: 3 days at 37°C
Protocol: as §1
(§2) For the in vitro antimicrobial susceptibility, the same protocol as described above was used. The culture plates were further incubated up to 3 days at 37°C. The MIC values were read and recorded.

[3] = system: M. abscessus clinical isolate MAB06; type: cell-based, M. abscessus subsp. abscessus; conditions: 3 days at 37°C
Protocol: as §1, §2

[4] = system: M. abscessus clinical isolate MAB01; assay: In vitro antimicrobial susceptibility of potential AMPs, broth microdilution, 3 days; type: cell-based, M. abscessus subsp. abscessus; conditions: 3 days at 37°C
Protocol: as §1, §2

[5] = system: M. abscessus clinical isolate MAB03; assay: as above; type: cell-based, M. abscessus subsp. abscessus; conditions: 3 days at 37°C
Protocol: as §1, §2

[6] = system: M. abscessus clinical isolate MAB04; assay: as above; type: cell-based, M. abscessus subsp. abscessus; conditions: 3 days at 37°C
Protocol: as §1, §2

[7] = system: M. abscessus clinical isolate MAB05; assay: as above; type: cell-based, M. abscessus subsp. abscessus; conditions: 3 days at 37°C
Protocol: as §1, §2

[8] = system: M. abscessus clinical isolate MAB07; assay: as above; type: cell-based, M. abscessus subsp. abscessus; conditions: 3 days at 37°C
Protocol: as §1, §2

[9] = system: M. abscessus clinical isolate MAB08; assay: as above; type: cell-based, M. abscessus subsp. abscessus; conditions: 3 days at 37°C
Protocol: as §1, §2

[10] = system: M. abscessus clinical isolate MAB09; assay: as above; type: cell-based, M. abscessus subsp. abscessus; conditions: 3 days at 37°C
Protocol: as §1, §2

[11] = system: M. abscessus clinical isolate MAB10; assay: as above; type: cell-based, M. abscessus subsp. abscessus; conditions: 3 days at 37°C
Protocol: as §1, §2

[12] = system: M. abscessus clinical isolate MAB11; assay: as above; type: cell-based, M. abscessus subsp. abscessus; conditions: 3 days at 37°C
Protocol: as §1, §2

[13] = system: M. abscessus clinical isolate MAB12; assay: as above; type: cell-based, M. abscessus subsp. massiliense; conditions: 3 days at 37°C
Protocol: as §1, §2

[14] = system: M. abscessus clinical isolate MAB14; assay: as above; type: cell-based, M. abscessus subsp. massiliense; conditions: 3 days at 37°C
Protocol: as §1, §2

[15] = system: M. abscessus clinical isolate MAB15; assay: as above; type: cell-based, M. abscessus subsp. massiliense; conditions: 3 days at 37°C
Protocol: as §1, §2

[16] = system: M. abscessus clinical isolate MAB16; assay: as above; type: cell-based, M. abscessus subsp. massiliense; conditions: 3 days at 37°C
Protocol: as §1, §2

[17] = system: M. abscessus clinical isolate MAB13; type: cell-based, M. abscessus subsp. massiliense; conditions: 3 days at 37°C
Protocol: as §1, §2

[18] = system: human red blood cells (RBCs); assay: Hemolytic toxicity test; type: cell-based; conditions: for Hemolytic activities (%hemolysis): human RBCs, 1 h at 37°C, mean±SD of duplicates, two independent experiments
Protocol: For the hemolytic toxicity test, red blood cells (RBCs) from fresh blood samples of healthy volunteers were obtained by centrifugation at 1,000 rpm for 5 min. The cells were washed three times with sterile phosphate buffered saline (PBS) and adjusted into 1×10^8 cells/ml. AMPs were diluted with PPB in ranging from 6.25 to 400 μg/ml. Fifty microliters of the RBC suspensions and 50 μl of AMP solutions were added to 1.5 ml sterile microtubes, incubated for 1 h at 37°C and then centrifuged at 1,000 rpm for 5 min. The supernatants were transferred to new 96-well microtiter plates for measurement of the absorbance at 540 nm using a microplate reader. RBC suspensions treated with 2% (v/v) Triton X-100 and PBS solution were used as positive and negative controls. The percentages of hemolysis were calculated using the following formula: % of RBC lysis = 100 × [(Test—PBS) / (Positive control—PBS)]. All assays were performed in duplicate and two independent experiments.

[19] = system: human peripheral blood mononuclear cells (PBMCs); assay: PBMC toxicity, trypan blue exclusion assay; type: cell-based; conditions: 1 h at 37°C, mean±SD of duplicates, two independent experiments
Protocol: For the toxicity of the potential AMPs to human peripheral blood mononuclear cells (PBMCs), the trypan blue exclusion assay was used. Fresh human PBMCs were prepared from blood samples of healthy volunteers using the Ficoll density gradient technique. The cells were centrifuged at 1,800 rpm for 20 min at 20°C and washed three times with PBS and adjusted with RPMI-1640 medium into 6.25×10^5 cells/ml. Fifty microliters of PBMC suspension and 50 μl of AMP solutions (6.25–400 μg/ml) were added to the 96-well microtiter plates and incubated for 1 h at 37°C. Then, 20 μl of the samples were mixed with 20 μl of 0.4% (w/v) trypan blue solution (0.81% NaCl and 0.06% (w/v) dibasic potassium phosphate) in microtubes and incubated for 3 min at room temperature. The PBMC suspensions treated with PBS were used as negative controls. PBMCs were counted using a dual-chamber hemocytometer under a light microscope. Viable and non-viable cells were counted under a microscope and the percentage of viable cells was calculated using the following formula: % of viable cells = [1.00 –([…] / Number of total cells)] × 100. All assays were performed in duplicate with two independent experiments.

[20] = system: sixteen clinical Mab isolates; assay: 24-hour bactericidal activity assay, summary over isolates; type: cell-based, Mycobacterium abscessus; conditions: majority of the tested strains (10/16 isolates); equivalent of <50 μg/ml
Protocol: as §1
Potential AMPs from the screening assays were subjected to determine the 24-hour bactericidal activity assays (corresponding to the common time of administration) with sixteen clinical Mab isolates using the protocol as described above. To observe the early antimicrobial activities, the plates were incubated for 24 h at 37°C. The samples from each well were further diluted in 0.05% Tween 80 and inoculated on Mueller-Hinton agar. After incubation for 3 days at 37°C, the colony-forming units (CFUs) were counted and calculated for the percentage of killing using the following formula: % killing = 1 - (CFU sample/ CFU control) ×100.

[21] = system: clinical isolates of M. abscessus; assay: In vitro susceptibility of potential AMPs, 3 days, summary over isolates; type: cell-based, Mycobacterium abscessus; conditions: isolates MAB01 and MAB03
Protocol: as §1, §2

With `CC(C)C[C@H](NC(=O)[C@H](CCCCN)NC(=O)[C@H](CC(C)C)NC(=O)[C@H](CC(C)C)NC(=O)[C@H](CC(C)C)NC(=O)[C@H](CC(C)C)NC(=O)[C@H](CC(C)C)NC(=O)[C@H](CCCCN)NC(=O)[C@H](CC(C)C)NC(=O)[C@@H](N)CCCCN)C(=O)O` [KLK1] (H-KLKLLLLLKL-OH) the MIC values [1] was 400 µg/mL (≈ 335 µM), the “Antimicrobial peptides against M. abscessus isolates, MIC value” (shortened to “Antimicrobial peptides”) [2] was >400 µg/mL and the “Antimicrobial peptides” value [3] was >400 µg/mL. The “Antimicrobial peptides” value [4] was 25 µg/mL, the “Antimicrobial peptides” value [5] was 50 µg/mL and the “Antimicrobial peptides” value [6] was >400 µg/mL. For the same compound, the “Antimicrobial peptides” value [7] was >400 µg/mL, the “Antimicrobial peptides” value [8] was >400 µg/mL and the “Antimicrobial peptides” value [9] was >400 µg/mL. The “Antimicrobial peptides” value [10] was >400 µg/mL, the “Antimicrobial peptides” value [11] was >400 µg/mL and the “Antimicrobial peptides” value [12] was >400 µg/mL. For the same compound, the “Antimicrobial peptides” value [13] was >400 µg/mL, the “Antimicrobial peptides” value [14] was >400 µg/mL and the “Antimicrobial peptides” value [15] was >400 µg/mL. For the same compound, the “Antimicrobial peptides” value [16] was >400 µg/mL, the “Antimicrobial peptides” value [17] was >400 µg/mL and the “Hemolytic activities (%hemolysis)” value ([18]; 6.25 µg/mL) was 0.7±0.50%. For the same compound, the “Hemolytic activities (%hemolysis)” value ([18]; 12.5 µg/mL) was 4.93±2.49%, the “Hemolytic activities (%hemolysis)” value ([18]; 25 µg/mL) was 8.27±1.74% and the “Hemolytic activities (%hemolysis)” value ([18]; 50 µg/mL) was 12.15±0.25%. For the same compound, the “Hemolytic activities (%hemolysis)” value ([18]; 100 µg/mL) was 15.85±1.49%, the “Hemolytic activities (%hemolysis)” value ([18]; 200 µg/mL) was 18.13±0.25% and the “Hemolytic activities (%hemolysis)” value ([18]; 400 µg/mL) was 22.18±1.99%. For the same compound, the “hemolysis at the MICs level” value ([18]; at the MICs level, single figure of the abstract) was 10.21%, the “Viable cells of PBMCs (% viable cells)” value ([19]; 6.25 µg/mL) was 102.52±5.04% and the “Viable cells of PBMCs (% viable cells)” value ([19]; 12.5 µg/mL) was 100.00±2.95%. The “Viable cells of PBMCs (% viable cells)” value ([19]; 25 µg/mL) was 92.70±4.41%, the “Viable cells of PBMCs (% viable cells)” value ([19]; 50 µg/mL) was 94.34±2.80% and the “Viable cells of PBMCs (% viable cells)” value ([19]; 100 µg/mL) was 91.68±8.42%. The “Viable cells of PBMCs (% viable cells)” value ([19]; 200 µg/mL) was 65.81±4.51%, the “Viable cells of PBMCs (% viable cells)” value ([19]; 400 µg/mL) was 44.62±7.22% and the “MIC with ~99% killed within 24 h” value [20] was < 41.85 µM. The “MIC values after 3 days” value [21] was 20.93 to 41.85 µM.
